Assay results: ChEMBL document CHEMBL1141329, “Cyclic peptides from an endophytic fungus obtained from a mangrove leaf (Kandelia candel)” (J Nat Prod, 2007)
Values after ≈ are worked out from the molar mass of the structure shown.

System: MCF7
Experiment: Antitumor activity against human MCF7 cells by MTT assay
Assay type: functional, cell-based

Q: Which IC50 does the source give for `CC(C)C[C@@H]1OC(=O)CNC(=O)[C@H](C(C)C)NC(=O)[C@H](Cc2ccc(O)cc2)NC(=O)CNC(=O)[C@@H](CC(C)C)NC1=O` here?
A: Its IC50 is 100 µg/mL (≈ 166 µM).
